Test results from patent US20100266618A1, “COMPOSITIONS AND METHODS FOR AUGMENTING ACTIVITY OF ONCOLYTIC VIRUSES” (priority 2009, published 2010).

Assays:
[1] = Maximum tolerable dose (MTD) study; assay type: in vivo; conditions: single IP injection, CD-1 nude mice
Experimental: (§1) Maximum tolerable dose (MTD) and pharmacokinetic (PK) studies in mice: For MTD studies, groups of three CD-1 nude mice (6-8 weeks old) were given a single intraperitoneal (IP) injection of Compound 2 (in log 2 increments, diluted in 10% Tween-80) ranging from […]-1000 mg/Kg. The animals were monitored twice daily for signs of distress, including weight loss, morbidity, and respiratory distress. For PK studies, groups of three CD-1 nude mice (6-8 weeks old) were given a single IP injection of Compound 2 (250 mg/Kg), and blood was taken from the saphenous vein at the indicated timepoints. The blood was centrifuged at 3,000 rpm for 10 min, and plasma collected and frozen (−80 deg C.). Plasma samples were analyzed for Compound 2 using LC-MS. To 10 μL plasma, 20 μL acetonitrile was added, vortexed briefly and centrifuged at 14,000 rpm for 10 min. The clear supernatant was transferred in to a vial for LC-MS analysis. Chromatographic separations were carried out on an Acquity UPLC BEH C18 (2.1×50 mm, […]) column using ACQUITY UPLC system. The mobile phase was 0.1% formic acid in water (solvent A) and 0.1% formic acid in acetonitrile (solvent B). A gradient starting at 95% solvent A going to 5% in 4.5 min, holding for 0.5 min, going back to 95% in 0.5 min and equilibrating the column for 1 min was employed. […]

[2] = Pharmacokinetic (PK) study, plasma LC-MS; assay type: in vivo; conditions: CD-1 nude mice
Experimental: as §1

OVCAR-4 xenograft = test: Ovarian xenograft model, bioluminescent imaging; assay type: in vivo, CD-1 nude mice
Experimental: Ovarian xenograft model: Human ovarian carcinoma-derived OVCAR-4 cells, adapted for bioluminescent imaging, were injected into 6-8 week old athymic CD-1 nude mice (IP injection, 5×10^6 cells per mouse). Untreated animals develop measurable abdominal tumours (assessed by IVIS imaging) by 4-7 days, become icteric by 3-4 months and must be euthanized shortly thereafter due to systemic disease as characterized by enlarged cancerous liver and spleen, pale kidneys, and cancerous lymph nodes on the abdominal mesentery. For efficacy experiments, Compound 2 (250 mg/kg; or vehicle (10% Tween-80)) was administered twice daily (IP injections), beginning on day 14 and ending on day 19. Maraba-DM (1×10^5 pfu per cell) or PBS was injected IV (tail vein) on day 16, 17, 19, 23, 25, 27. Animals were monitored daily for weight loss, morbidity, hind leg paralysis and respiratory distress. Tumour images were captured twice weekly with a Xenogen 200 IVIS system (Caliper LS, USA), and total luminescent flux was analyzed on computerized software (Xenogen).

EMT6 tumours = test: EMT6 syngeneic breast cancer model, bioluminescent imaging and survival; assay type: in vivo, Balb/c mice
Experimental: EMT6 syngeneic breast cancer models: Murine EMT6 breast cancer-derived cells (1×10^5 per mouse) were adapted for bioluminescent imaging and injected into the fat pad of the right lower breast in 6-8 week old Balb/c mice. Mice developed palpable tumours by 5-7 days, which grew rapidly. At 7 days post-tumour implants, mice were treated with Compound 2 (250 mg/kg, IP) or vehicle, twice daily, for six days. Maraba-DM (1×10^7 pfu per cell) or PBS was injected IV (tail vein) on day 10, 11, 13, 16, and 17. Animals were monitored daily for piloerection, weight loss, morbidity, hind leg paralysis and respiratory distress. Tumour images were captured twice weekly using a Xenogen 200 IVIS system (Caliper LS, USA), and total luminescent flux was analyzed on computerized software (Xenogen). Mice were euthanized when the total flux exceeded 1×10^7, which corresponded to a tumour burden of ˜500 mm^3 and occurred between 14-17 days in untreated animals.

EMT6 breast cancer line = test: In vitro cytotoxicity assay with small molecule followed by Maraba virus infection; conditions: 50 uM for 48 h prior to Maraba virus infection
Experimental: In vitro cytotoxicity assays with small molecules: Cells were seeded onto 96 well plates to a confluence of ˜50%. The following day, siRNA transfections were performed, or small-molecule IRE1α inhibition was initiated. For the small-molecules, DMSO was used as a vehicle with a [drug]=20-50 μM. Drug treatment occurred for either 4 h (“acute” treatment), or was re-applied at 24 h and left for 48 h total (“chronic” treatment). Following knockdown or chemical inhibition, the cells were infected at log dilutions with the indicated rhabdoviruses. After 48-72 h of infection (depending on the cell line), Resazurin sodium salt was added to a final concentration of 20 μg/ml. After a 6 h incubation the absorbance was read at a wavelength of 573 nm.

U373 and OVCAR8 cells = assay type: cell-based, human

Row | Molecule | tolerated single dose [1] | bio-distribution [2] | half-life ([2]; mouse, plasma, intraperitoneal, 250 mg/Kg) | duration of reduced tumour burden (OVCAR-4 xenograft; combination with Maraba-DM) | tumour burden (OVCAR-4 xenograft; combination with Maraba-DM, Compound 2 250 mg/kg IP twice daily) | tumour growth (OVCAR-4 xenograft; single agent) | tumour burden (EMT6 tumours; combination with Maraba virus, 250 mg/Kg IP twice daily for 6 days) | tumour growth after drug treatment was stopped (EMT6 tumours; combination, virus dosing continued) | tumour growth (EMT6 tumours; single agent) | efficacy (survival) with extended treatment (EMT6 tumours; treatment extended to more than 12 days in combination with virus) | sensitization to oncolytic virus killing (EMT6 breast cancer line) | eIF2alpha phosphorylation (U373 and OVCAR8 cells)
1 | COc1cc(-c2cccc(C(N)=O)c2)cc(C=O)c1O [Compound 2, 3′-formyl-4′-hydroxy-5′-methoxy-[1,1′-biphenyl]-3-carboxamide] | up to 1000 mg/Kg | efficient bio-distribution to the extravascular tissues | > 6 h | > 30 days | dramatically reduced tumour burden | rapid re-growth occurred after an early period of tumour regression | significantly reduced tumour burden | tumour re-growth occurred even in the presence of continued virus dosing | neither drug nor virus had an appreciable effect on tumour growth | continued to increase efficacy | significantly sensitized to oncolytic virus killing | –
2 | tunicamycin [reference compound] | – | – | – | – | – | – | – | – | – | – | – | inducing elF2alpha phosphorylation
